# Test results: patent US7985766B2, “Combination of anticholineric and β mimetics for the treatment of respiratory diseases” (MEDA Pharma GmbH & Co. KG, priority 2004, dated 2011)
# Like-named read-outs stand apart in the source and are kept apart here.
# Test system: guinea pigs
# Conditions: for inhibition of acetylcholine-induced bronchoconstriction (bronchodilatory effect): 1 μg/kg, single drug; for inhibition of acetylcholine-induced bronchoconstriction (bronchodilatory effect) / inhibition of the bronchospasm: i.th.; for inhibition of acetylcholine-induced bronchoconstriction, dose dependence: i.th. 1-10 μg/kg, acetylcholine 10 μg/kg i.v., anesthetized male guinea pigs
# Experimental: After cannulating the trachea, animals were respired using a small animal respiratory pump with a constant tidal volume and a rate of 60 breaths/min. The lung resistance was measured by using a rodent lung function recording system (MUMED, London, UK). Compounds were given intravenously (i.v.) via a catheter placed in the right jugular vein. After surgery, the animals were allowed to stabilize. 10 min before acetylcholine (10 μg/kg, i.v.) administration, the guinea pigs were disconnected from the respirator and either vehicle (10 mg/lactose) or different amounts of drugs (blended with lactose) were administered intratracheally (i.th.) using a syringe. The trachea was then reconnected to the respirator and changes in pulmonary mechanics were recorded. Acetylcholine (10 μg/kg) was injected intravenously in every 10 minutes for 60 min.
Structure (SMILES),inhibition of acetylcholine-induced bronchoconstriction (bronchodilatory effect),"inhibition of acetylcholine-induced bronchoconstriction, dose dependence",inhibition of the bronchospasm (3 μg/kg),inhibition of the bronchospasm (10 μg/kg)
COc1ccc(CC(C)NCC(O)c2ccc(O)c(NC=O)c2)cc1 (stereo not drawn) [formoterol],did not show any bronchodilatory effects,dose-dependently inhibited,,
"C[N+]1(C)CC[C@@H](OC(=O)[C@](O)(c2ccccc2)C2CCCC2)C1.[Br-] [R,R-glycopyrrolate]",not effective,dose-dependently inhibited,ca. 40%,about 80%
